Reference: patent US20200239530A1, “COMPOUNDS AND METHODS OF MODULATING PROTEIN DEGRADATION” (Vividion Therapeutics, Inc., priority 2017, published 2020)

Columns and labels:
Type in all cases: binding
[1] = target: T1, CDK17 Cyclin-dependent kinase 17 (Homo sapiens, UniProt Q00537); assay: Cysteine liganding, probe competition; details: for Liganded: CDK17 Res# 233, uniprot Q00537
T1 construct: 200 μL of lysate containing 5 mg/ml proteome was treated with 2 μL of 100× compound stock; endogenous in cells
Procedure: (§1) Cells were resuspended in cold PBS on ice and sonicated with a probe sonicator to achieve lysis. 200 μL of lysate containing 5 mg/ml proteome was treated with 2 μL of 100× compound stock in a 2-mL deep-well plate. The treated lysate was subsequently incubate at 25° C. for 1 hr with shaking at 600 rpm. The treated lysate was further incubated with 2 μL of 10 mM desthiobiotin iodoacetamide probe at 25° C. for 1 hr with shaking at 600 rpm. Next, the lysate was further treat with 20 μL of solution of PBS containing 11 mM MgSO4 and 2.5% Turbonuclease stock and incubated at 25° C. for 20 minutes with shaking at 600 rpm. 1.7 mL ice-cold acetone was added to each well and incubated at −20° C. for 2 hr, followed by max speed (4200 rpm) spin for 45 min. Acetone was then decanted and the plates were blotted to remove acetone. The plates were then dried in open air for 20 minutes. After drying, the plates were then covered with foil seal and stored at −80° C. overnight.
(§2) The next day, samples were re-suspended in 90 μL of solution of 9M urea, 50 mM ammonium bicarbonate and 10 mM DTT by incubating at 65C for 20 min with shaking at 1500 rpm. Next, samples were cooled to 37° C. and then 10 μL of 500 mM iodoacetamide solution (92.48 mg/ml) was added. The samples were then incubated at 37° C. for 30 min with shaking at 600 rpm.
(§3) ZEBA desalting plates were equilibrated 4 times using 250 μL of 2M urea, 50 mM ammonium bicarbonate solution followed by centrifugation at 1500 rpm for 2 minutes. After equilibration was complete, samples were applied to ZEBA desalting plate and spin at 1500 rpm for 2 min on top of 1 mL 96-well deep-well collection plate to buffer exchange samples. 4 μL of solution containing 25 mM CaCl2 and 0.25 mg/mL trypsin was added to the plate and the plate was then incubated at 37° C. for 2 hrs with shaking at 600 rpm. 300 μL of solution containing 5% high-capacity streptavidin agarose slurry in 25 mM Tris-HCl pH 7.5, 150 mM NaCl, and 0.1% NP-40 then added. The plate was incubated at 25° C. for 2 hrs with shaking at 600 rpm. Samples were transferred to 25 μm filter plate and spin at 1000 rpm for 2 min. Samples were then washed 3 times with 0.75 mL of wash buffer (25 mM Tris-HCl pH 7.5, 150 mM NaCl, and 0.1% NP-40) followed by washing 3 times with 0.75 mL PBS, and then 4 times with 0.75 mL water. After the washing step, samples were eluted into polypropylene 96-well plate by addition of 250 µL of 50% MeCN/water, 0.1% formic acid and allowed to gravity drip for 10 min, followed by centrifugation at 1000 rpm for 2 min. Speedvac was used to dry the plates at about 45° C. for […]. Then the plates were covered with foil seal and stored at −20° C.
(§4) Samples were resuspended by addition of 20 μl of 12.5% ACN, 0.1% formic acid solution, covered with foil seal, and incubated at 42° C. for 10 minutes with shaking at 600 rpm. Then add 30 μL of 0.1% formic acid solution was added and the plate was covered and incubated at 42° C. for 10 minutes with shaking at 600 rpm. Seal plate was then sealed with a 96-well silicon mat for analysis.

[2] = target: T2, FLYWCH2 FLYWCH family member 2 (Homo sapiens, UniProt Q96CP2); assay: Cysteine liganding, probe competition
T2 construct: 200 μL of lysate containing 5 mg/ml proteome was treated with 2 μL of 100× compound stock; endogenous in cells
T2 sequence (Q96CP2 1-140): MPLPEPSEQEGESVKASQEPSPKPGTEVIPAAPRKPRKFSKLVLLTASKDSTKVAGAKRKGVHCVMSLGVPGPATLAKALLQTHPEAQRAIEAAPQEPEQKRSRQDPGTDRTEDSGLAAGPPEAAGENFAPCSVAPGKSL
Procedure: as §1, §2, §3, §4

[3] = target: T3, cysteine residue illustrated in Table 1A or Table 2A (Homo sapiens, UniProt Q9GZQ3); assay: Competitive cysteine profiling of cell lysate with desthiobiotin iodoacetamide probe (96-well sample prep); details: UniProt Q9GZQ3; 500 uM
T3 construct: Cells were resuspended in cold PBS on ice and sonicated with a probe sonicator to achieve lysis; endogenous in cells
Procedure: (§5) In some embodiments, the solution sample (e.g., cell sample, cell lysate sample, or comprising isolated proteins) is incubated with a compound of Formula (I) for analysis of protein-probe interactions. In some instances, the solution sample (e.g., cell sample, cell lysate sample, or comprising isolated proteins) is further incubated in the presence of an additional compound probe prior to addition of the compound of Formula (I). […] In such instances, the solution sample is incubated with a probe and a ligand for competitive protein profiling analysis.
(§6) The following 96-well sample prep protocol was used for sample preparation.
as §1, §2, §3, §4

[4] = target: T4, cysteine residue illustrated in Table 1A or Table 2A (Homo sapiens, UniProt Q5H9S7); assay: as above; details: UniProt Q5H9S7; 100 uM
T4 construct: Cells were resuspended in cold PBS on ice and sonicated with a probe sonicator to achieve lysis; endogenous in cells
T4 sequence (Q5H9S7 1-520): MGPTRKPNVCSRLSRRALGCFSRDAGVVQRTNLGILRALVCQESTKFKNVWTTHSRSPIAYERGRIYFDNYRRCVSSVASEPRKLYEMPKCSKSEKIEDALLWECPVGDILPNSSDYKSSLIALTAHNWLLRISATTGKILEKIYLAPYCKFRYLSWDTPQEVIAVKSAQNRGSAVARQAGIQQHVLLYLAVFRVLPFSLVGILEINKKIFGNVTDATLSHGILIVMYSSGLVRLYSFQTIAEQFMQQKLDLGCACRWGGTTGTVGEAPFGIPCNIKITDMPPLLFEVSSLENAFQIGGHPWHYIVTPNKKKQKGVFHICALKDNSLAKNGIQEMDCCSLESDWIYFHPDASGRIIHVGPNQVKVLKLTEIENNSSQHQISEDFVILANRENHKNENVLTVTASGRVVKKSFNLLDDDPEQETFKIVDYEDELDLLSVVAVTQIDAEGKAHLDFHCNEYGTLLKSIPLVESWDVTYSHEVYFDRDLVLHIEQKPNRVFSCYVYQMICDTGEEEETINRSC
Procedure: as §5, §6, §1, §2, §3, §4

[5] = target: T5, cysteine residue illustrated in Table 1A or Table 2A (Homo sapiens, UniProt Q86X83); assay: as above; details: UniProt Q86X83
T5 construct: Cells were resuspended in cold PBS on ice and sonicated with a probe sonicator to achieve lysis; endogenous in cells
Procedure: as §5, §6, §1, §2, §3, §4

[6] = target: T6, cysteine residue illustrated in Table 1A or Table 2A (Homo sapiens, UniProt A6NGE4); assay: as above; details: UniProt A6NGE4; 500 uM
T6 construct: Cells were resuspended in cold PBS on ice and sonicated with a probe sonicator to achieve lysis; endogenous in cells
Procedure: as §5, §6, §1, §2, §3, §4

Q: For `O=C(CCl)Nc1cc(C(F)(F)F)cc(C(F)(F)F)c1` [KBO3], which Liganded [1] is on record?
A: Its Liganded is “YES”.

Q: What about the “100 Max” value ([1]; uniprot Q00537) of the same molecule?
A: The value was 50.67.

Q: What about the 100 ave ([1]; uniprot Q00537) of the same molecule?
A: Its 100 ave is 28.2075.

Q: What about the 500 ave ([1]; uniprot Q00537) of the same molecule?
A: The 500 ave was 79.225.

Q: And the “500 Max” value ([1]; uniprot Q00537, in % (unit assumed))?
A: Its value is 80.44.

Q: What about the “100 Max” value ([2]; uniprot Q96CP2) of the same molecule?
A: The value was 12.97.

Q: What about the 100 ave ([2]; uniprot Q96CP2) of the same molecule?
A: The 100 ave was 2.25.

Q: And the “500 Max” value ([2]; uniprot Q96CP2)?
A: Its value is 41.66.

Q: And the 500 ave ([2]; uniprot Q96CP2)?
A: Its 500 ave is 41.635.

Q: And the “KB03_500 uM_percent_inhibition” value [3]?
A: Its value is 24%.

Q: What about the “KB03_100 uM_percent_inhibition” value [4] of the same molecule?
A: Its value is 39%.

Q: What about the “KB03_100 uM_percent_inhibition” value ([5]; 100 uM) of the same molecule?
A: The value was 35%.

Q: And the “KB03_500 uM_percent_inhibition” value ([5]; 500 uM)?
A: Its value is 72%.

Q: What about the “KB03_500 uM_percent_inhibition” value [6] of the same molecule?
A: The value was 41%.

Q: How did the Liganded [1] turn out when `COc1ccc2c(c1)CCCN2C(=O)CCl` [KB02] was run?
A: Its Liganded is “YES”.

Q: And the Liganded ([2]; FLYWCH2 Res# 64, uniprot Q96CP2)?
A: The Liganded was “YES”.

Q: What about the “KB02_500 uM_percent_inhibition” value [3] of the same molecule?
A: The value was 11%.

Q: What about the “KB02_100 uM_percent_inhibition” value [4] of the same molecule?
A: The value was 69%.

Q: What about the “KB02_100 uM_percent_inhibition” value ([5]; 100 uM) of the same molecule?
A: Its value is 31%.

Q: What about the “KB02_500 uM_percent_inhibition” value ([5]; 500 uM) of the same molecule?
A: The value was 83%.

Q: And the “KB02_500 uM_percent_inhibition” value [6]?
A: The value was 55%.

Q: With `C=CC(=O)N(c1ccccc1)c1ccc(Br)cc1` [KB05] as the molecule, how does the “KB05_500 uM_percent_inhibition” value [3] read?
A: Its value is 56%.

Q: And the “KB05_100 uM_percent_inhibition” value [4]?
A: The value was 54%.

Q: And the “KB05_100 uM_percent_inhibition” value ([5]; 100 uM)?
A: Its value is 38%.

Q: And the “KB05_500 uM_percent_inhibition” value ([5]; 500 uM)?
A: The value was 78%.

Q: And the “KB05_500 uM_percent_inhibition” value [6]?
A: Its value is 63%.
